Measurements taken from patent US20180273531A1, “PYRIMIDINE COMPOUND AND MEDICAL USE THEREOF” (Japan Tobacco Inc., priority 2004, published 2018).

Each compound was assayed on p15 protein (assay: Evaluation of p15 induction activity (Western blotting)). Conditions: test substance 0.1 μM, 24 hrs, ACHN cells or HT-29 cells, compared to DMSO, n=2.
Assay type: cell-based
Procedure: ACHN cells or HT-29 cells were cultured in a 6 well plate at 2.5×10^5 cells/1.8 mL/well for 24 hrs, then a test substance (0.1 μM) dissolved in DMSO was added. After 24 hrs, cells were detached using trypsin-EDTA (ethylene diamine tetraacetic acid) and solubilized with NuPAGE LDS sample buffer (Invitrogen). Using an RC DC protein assay kit (BIO-RAD), the protein concentration of the sample was quantitated, and a sample in an amount corresponding to 10 μg of BSA (bovine serum albumin) was analyzed by Western blotting using an anti-p15 antibody. The density of the band stained with the anti-p15 antibody was measured by a densitometer to quantify the amount of p15 protein. As a control, DMSO was used and the test was performed with n=2 and the average protein amount was determined.
CCNc1ccc(Nc2cc(=O)n(C)c3c2c(=O)n(C2CC2)c(=O)n3-c2ccccc2)cc1 [Example 1-137] showed a fold induction at 0.1 µM of no less than 1.5. For Cn1ccc2cc(Nc3cc(=O)n(C)c4c3c(=O)n(C3CC3)c(=O)n4-c3ccccc3)ccc21 [Example 1-138], the fold induction at 0.1 µM was no less than 1.5. Work on CN(C)c1ccc(Nc2cc(=O)n(C)c3c2c(=O)n(C2CC2)c(=O)n3-c2ccccc2)cc1F [Example 1-143] yielded a fold induction at 0.1 µM of no less than 1.5. Work on COc1ccc(Nc2cc(=O)n(C)c3c2c(=O)n(C2CC2)c(=O)n3-c2ccccc2)c(OC)c1 [Example 1-146] yielded a fold induction at 0.1 µM of no less than 1.5. For Cn1c(=O)cc(Nc2ccc(Br)c(F)c2)c2c(=O)n(C3CC3)c(=O)n(-c3ccccc3)c21 [Example 1-151], the fold induction at 0.1 µM was no less than 1.5. Compound CC1CC1n1c(=O)c2c(Nc3ccc(Br)cc3)cc(=O)n(C)c2n(-c2ccccc2)c1=O (stereo not drawn) [Example 1-153] has a fold induction at 0.1 µM of no less than 1.5. Compound COc1ccc(Nc2cc(=O)n(C)c3c2c(=O)n(C2CC2)c(=O)n3-c2ccccc2)c(C)c1 [Example 1-154] has a fold induction at 0.1 µM of no less than 1.5. Cc1cc(Br)ccc1Nc1cc(=O)n(C)c2c1c(=O)n(C1CC1)c(=O)n2-c1ccccc1 [Example 1-156] showed a fold induction at 0.1 µM of no less than 1.5. Compound Cc1cc(Nc2cc(=O)n(C)c3c2c(=O)n(C2CC2)c(=O)n3-c2ccccc2)ccc1Br [Example 1-157] has a fold induction at 0.1 µM of no less than 1.5. In the case of Cn1c(=O)cc(Nc2ccc(F)cc2F)c2c(=O)n(C3CC3)c(=O)n(-c3ccccc3)c21 [Example 1-162], the fold induction at 0.1 µM is reported as no less than 1.5. Cn1c(=O)cc(Nc2ccc(Cl)cc2Cl)c2c(=O)n(C3CC3)c(=O)n(-c3ccccc3)c21 [Example 1-163] showed a fold induction at 0.1 µM of no less than 1.5. In the case of Cn1c(=O)cc(Nc2ccc3[nH]ccc3c2)c2c(=O)n(C3CC3)c(=O)n(-c3ccccc3)c21 [Example 1-165], the fold induction at 0.1 µM is reported as no less than 1.5. Compound COc1ccccc1-n1c(=O)n(C2CC2)c(=O)c2c(Nc3ccc(Br)cc3F)cc(=O)n(C)c21 [Example 1-166] has a fold induction at 0.1 µM of no less than 1.5. CCn1ccc2cc(Nc3cc(=O)n(C)c4c3c(=O)n(C3CC3)c(=O)n4-c3ccccc3)ccc21 [Example 1-167] gave a fold induction at 0.1 µM of no less than 1.5. With Cc1ccc(Nc2cc(=O)n(C)c3c2c(=O)n(C2CC2)c(=O)n3-c2ccccc2)c(F)c1 [Example 1-168] the fold induction at 0.1 µM was no less than 1.5. Cn1c(=O)cc(Nc2ccc(O)cc2)c2c(=O)n(C3CC3)c(=O)n(-c3ccccc3)c21 [Example 1-172] showed a fold induction at 0.1 µM of no less than 1.5. With Cn1c(=O)cc(Nc2ccccc2F)c2c(=O)n(C3CC3)c(=O)n(-c3ccccc3)c21 [Example 1-173] the fold induction at 0.1 µM was no less than 1.5. With COc1ccc(-n2c(=O)n(C3CC3)c(=O)c3c(Nc4ccc(Br)cc4)cc(=O)n(C)c32)cc1 [Example 1-183] the fold induction at 0.1 µM was no less than 1.5.

The compounds below were run on Renal cancer cell line ACHN cell (assay: Growth inhibitory effect against cancer cell lines (3H-thymidine uptake), ACHN). Conditions: Homo sapiens, ACHN.
Assay type: cell-based
Procedure: (§1) Renal cancer cell line ACHN cell or colorectal cancer cell line HT-29 cells were cultured in a 96 well plate at 1.0×10^4 cells/90 μL/well for 24 hrs, then a test substance dissolved in DMSO (dimethyl sulfoxide) was added. After 18 hrs, ^3H-thymidine (0.25 μCi/well) was added and the cells were cultured for 6 hrs. Using a cell harvester, the cells were recovered on a UniFilter-96 GF/B glass filter and the ^3H radioactivity uptaken by the cells was measured by TopCount (Packard). As a control, DMSO was used and the activity of the test substance was expressed in the concentration (IC50) necessary for inhibiting ^3H radioactivity uptaken by the cell to 50% of that of the control group. The measurements were made in triplicate.
For Cn1c(=O)cc(Nc2ccc(Br)cc2F)c2c(=O)n(C3CC3)c(=O)n(-c3cccc(OCCN4CCOCC4)c3)c21 [Example 1-232], the IC50 was 100 to 1000 nM. For Cn1c(=O)cc(Nc2ccc(Br)cc2F)c2c(=O)n(C3CC3)c(=O)n(-c3cccc(NS(=O)(=O)CC(F)(F)F)c3)c21 [Example 1-267], the IC50 was 100 to 1000 nM. Work on Cn1c(=O)cc(Nc2ccc(Br)cc2F)c2c(=O)n(C3CC3)c(=O)n(-c3cccc(C(N)=O)c3)c21 [Example 1-270] yielded an IC50 of 100 to 1000 nM. With CCCCC(=O)NCC(=O)Nc1cccc(-n2c(=O)n(C3CC3)c(=O)c3c(Nc4ccc(Br)cc4F)cc(=O)n(C)c32)c1 [Example 1-276] the IC50 was 100 to 1000 nM. CNS(=O)(=O)c1cccc(-n2c(=O)n(C3CC3)c(=O)c3c(Nc4ccc(Br)cc4F)cc(=O)n(C)c32)c1 [Example 1-294] gave an IC50 of 10 to 100 nM. With Cn1c(=O)cc(Nc2ccc(Br)cc2F)c2c(=O)n(C3CC3)c(=O)n(-c3cccc(NS(=O)(=O)CCN4CCOCC4)c3)c21 [Example 1-339] the IC50 was 100 to 1000 nM. In the case of CCc1ccc(Nc2c3c(=O)n(C4CC4)c(=O)n(-c4cccc(NS(C)(=O)=O)c4)c3c(C)c(=O)n2CC)c(F)c1 [Example 4-39], the IC50 is reported as 100 to 1000 nM. Compound CCc1ccc(Nc2c3c(=O)n(C4CC4)c(=O)n(-c4cccc(NC(C)=O)c4)c3c(C)c(=O)n2CC)c(F)c1 [Example 4-47] has an IC50 of 100 to 1000 nM.

Each compound was assayed on colorectal cancer cell line HT-29 cells (assay: Growth inhibitory effect against cancer cell lines (3H-thymidine uptake), HT-29). Conditions: Homo sapiens, HT-29, inhibition of 3H-thymidine uptake; test substance 18 hrs, then 3H-thymidine 6 hrs; triplicate.
Assay type: cell-based
Procedure: as §1
Cn1ccc2cc(Nc3cc(=O)n(C)c4c3c(=O)n(C3CC3)c(=O)n4-c3ccccc3)ccc21 [Example 1-138] gave an IC50 of 100 to 1000 nM. With CN(C)c1ccc(Nc2cc(=O)n(C)c3c2c(=O)n(C2CC2)c(=O)n3-c2ccccc2)cc1F [Example 1-143] the IC50 was 100 to 1000 nM. In the case of Cn1c(=O)cc(Nc2ccc(Br)c(F)c2)c2c(=O)n(C3CC3)c(=O)n(-c3ccccc3)c21 [Example 1-151], the IC50 is reported as 100 to 1000 nM. Work on CC1CC1n1c(=O)c2c(Nc3ccc(Br)cc3)cc(=O)n(C)c2n(-c2ccccc2)c1=O (stereo not drawn) [Example 1-153] yielded an IC50 of 100 to 1000 nM. With Cc1cc(Br)ccc1Nc1cc(=O)n(C)c2c1c(=O)n(C1CC1)c(=O)n2-c1ccccc1 [Example 1-156] the IC50 was 100 to 1000 nM. Cn1c(=O)cc(Nc2ccc(Cl)cc2Cl)c2c(=O)n(C3CC3)c(=O)n(-c3ccccc3)c21 [Example 1-163] was tested, and the IC50 was 100 to 1000 nM. Cn1c(=O)cc(Nc2ccc3[nH]ccc3c2)c2c(=O)n(C3CC3)c(=O)n(-c3ccccc3)c21 [Example 1-165] was tested, and the IC50 was 100 to 1000 nM. For COc1ccccc1-n1c(=O)n(C2CC2)c(=O)c2c(Nc3ccc(Br)cc3F)cc(=O)n(C)c21 [Example 1-166], the IC50 was 10 to 100 nM. For Cc1ccc(Nc2cc(=O)n(C)c3c2c(=O)n(C2CC2)c(=O)n3-c2ccccc2)c(F)c1 [Example 1-168], the IC50 was 10 to 100 nM. With COc1ccc(-n2c(=O)n(C3CC3)c(=O)c3c(Nc4ccc(Br)cc4)cc(=O)n(C)c32)cc1 [Example 1-183] the IC50 was 100 to 1000 nM. In the case of Cn1c(=O)cc(Nc2ccc(Br)cc2F)c2c(=O)n(C3CC3)c(=O)n(-c3cccc(OCCN4CCOCC4)c3)c21 [Example 1-232], the IC50 is reported as 10 to 100 nM. In the case of Cn1c(=O)cc(Nc2ccc(Br)cc2F)c2c(=O)n(C3CC3)c(=O)n(-c3cccc(NS(=O)(=O)CC(F)(F)F)c3)c21 [Example 1-267], the IC50 is reported as 10 to 100 nM. Compound Cn1c(=O)cc(Nc2ccc(Br)cc2F)c2c(=O)n(C3CC3)c(=O)n(-c3cccc(C(N)=O)c3)c21 [Example 1-270] has an IC50 of 10 to 100 nM. For CCCCC(=O)NCC(=O)Nc1cccc(-n2c(=O)n(C3CC3)c(=O)c3c(Nc4ccc(Br)cc4F)cc(=O)n(C)c32)c1 [Example 1-276], the IC50 was 10 to 100 nM. Work on Cc1c(=O)n(C)c(Nc2ccc(I)cc2F)c2c(=O)n(CCCO)c(=O)n(-c3ccccc3)c12 [Example 4-147] yielded an IC50 of 100 to 1000 nM. Cc1c(=O)n(C)c(Nc2ccc(I)cc2F)c2c(=O)n(CCCO)c(=O)n(-c3cccc(NC(=O)CO)c3)c12 [Example 4-148] was tested, and the IC50 was 100 to 1000 nM.
